“And” between values parts separate entries of the source, which are not always exact repeats. Equal values may be shown once. Read-outs that look alike come from different tables or passages of the source.
Assays:
[1] = system: T. brucei BSF s427 wildtype cells; experiment: Growth assays of T. brucei (trypanocidal/trypanostatic effect); assay type: cell-based, Trypanosoma brucei
Outline: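 Cells were seeded at 1×10^5 cells/mL in HMI-9 with 10% FBS and 2 μM 2'-deoxycoformycin, then counted manually at intervals up to 48 h. For wash-out, cultures at 10^5 cells/mL (37 °C/5% CO2) were split at 8 h and 48 h and resuspended with or without compound, with counts every 24 h (detection limit 10^4 cells/mL).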

T. brucei Squib 427 = experiment: microbe, parasite or virus in culture; assay type: cell-based, Trypanosoma brucei brucei; settings: for EC50: Trypanosoma brucei
P2 transporter (TbAT1) = P2 transporter (TbAT1) (Trypanosoma brucei brucei, UniProt Q9Y0I0); experiment: cell-based; settings: for Ki: P2 transporter Ki
Chain of P2 transporter (TbAT1) (Q9Y0I0 entry or part of it): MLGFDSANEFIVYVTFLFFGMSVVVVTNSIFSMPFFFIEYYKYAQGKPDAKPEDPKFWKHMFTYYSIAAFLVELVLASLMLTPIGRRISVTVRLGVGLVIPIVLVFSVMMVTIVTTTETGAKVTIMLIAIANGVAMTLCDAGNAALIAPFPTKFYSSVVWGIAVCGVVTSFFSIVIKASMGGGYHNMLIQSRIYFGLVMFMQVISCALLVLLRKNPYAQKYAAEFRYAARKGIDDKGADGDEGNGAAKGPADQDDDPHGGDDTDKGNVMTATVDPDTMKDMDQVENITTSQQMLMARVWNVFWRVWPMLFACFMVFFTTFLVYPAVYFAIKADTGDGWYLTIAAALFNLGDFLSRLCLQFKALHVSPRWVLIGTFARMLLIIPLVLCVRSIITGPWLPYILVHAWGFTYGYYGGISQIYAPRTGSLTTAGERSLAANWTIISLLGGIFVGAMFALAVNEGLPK
Experimental: Non-specific association of radiolabel with the cell pellet was determined using an identical incubation in the presence of saturating (1 mM) unlabelled adenosine.

Nc1ncnc2c1c(Br)cn2[C@@H]1O[C@H](CO)C[C@H]1O [Compound 10, 3’-deoxy-7-Br-tubercidin]
AVG of cells/mL ([1]; 2xEC50, 2 h, experiment 1): 128750 cells/mL
Cells/mL ([1]; 2xEC50, 2 h, experiment 1): 137500 Cells/mL and 120000 Cells/mL
Counts ([1]; 2xEC50, 2 h, experiment 1): 55 and 48
AVG of cells/mL ([1]; 2xEC50, 2 h, experiment 2): 145000 cells/mL
Cells/mL ([1]; 2xEC50, 2 h, experiment 2): 147500 Cells/mL and 142500 Cells/mL
Counts ([1]; 2xEC50, 2 h, experiment 2): 59 and 57
AVG of cells/mL ([1]; 2xEC50, 4 h, experiment 1): 143750 cells/mL
Cells/mL ([1]; 2xEC50, 4 h, experiment 1): 162500 Cells/mL and 125000 Cells/mL
Counts ([1]; 2xEC50, 4 h, experiment 1): 50 and 65
AVG of cells/mL ([1]; 2xEC50, 4 h, experiment 2): 148750 cells/mL
Cells/mL ([1]; 2xEC50, 4 h, experiment 2): 160000 Cells/mL and 137500 Cells/mL
Counts ([1]; 2xEC50, 4 h, experiment 2): 55 and 64
AVG of cells/mL ([1]; 2xEC50, 6 h, experiment 1): 172500 cells/mL
Cells/mL ([1]; 2xEC50, 6 h, experiment 1): 177500 Cells/mL and 167500 Cells/mL
Counts ([1]; 2xEC50, 6 h, experiment 1): 71 and 67
AVG of cells/mL ([1]; 2xEC50, 6 h, experiment 2): 203750 cells/mL
Cells/mL ([1]; 2xEC50, 6 h, experiment 2): 192500 Cells/mL and 215000 Cells/mL
Counts ([1]; 2xEC50, 6 h, experiment 2): 77 and 86
AVG of cells/mL ([1]; 2xEC50, 8 h, experiment 1): 183750 cells/mL
Cells/mL ([1]; 2xEC50, 8 h, experiment 1): 177500 Cells/mL and 190000 Cells/mL
Counts ([1]; 2xEC50, 8 h, experiment 1): 71 and 76
AVG of cells/mL ([1]; 2xEC50, 8 h, experiment 2): 206250 cells/mL
Cells/mL ([1]; 2xEC50, 8 h, experiment 2): 215000 Cells/mL and 197500 Cells/mL
Counts ([1]; 2xEC50, 8 h, experiment 2): 86 and 79
AVG of cells/mL ([1]; 2xEC50, 12 h, experiment 1): 163750 cells/mL
Cells/mL ([1]; 2xEC50, 12 h, experiment 1): 195000 Cells/mL and 132500 Cells/mL
Counts ([1]; 2xEC50, 12 h, experiment 1): 78 and 53
AVG of cells/mL ([1]; 2xEC50, 12 h, experiment 2): 143750 cells/mL
Cells/mL ([1]; 2xEC50, 12 h, experiment 2): 160000 Cells/mL and 127500 Cells/mL
Counts ([1]; 2xEC50, 12 h, experiment 2): 64 and 51
AVG of cells/mL ([1]; 2xEC50, 24 h, experiment 1): 103750 cells/mL
Cells/mL ([1]; 2xEC50, 24 h, experiment 1): 125000 Cells/mL and 82500 Cells/mL
Counts ([1]; 2xEC50, 24 h, experiment 1): 50 and 33
AVG of cells/mL ([1]; 2xEC50, 24 h, experiment 2): 15000 cells/mL
Cells/mL ([1]; 2xEC50, 24 h, experiment 2): 15000 Cells/mL
Counts ([1]; 2xEC50, 24 h, experiment 2): 6
AVG of cells/mL ([1]; 2xEC50, 36 h, experiment 1): 103750 cells/mL
Cells/mL ([1]; 2xEC50, 36 h, experiment 1): 107500 Cells/mL and 100000 Cells/mL
Counts ([1]; 2xEC50, 36 h, experiment 1): 43 and 40
AVG of cells/mL ([1]; 2xEC50, 36 h, experiment 2): 7500 cells/mL
Cells/mL ([1]; 2xEC50, 48 h, experiment 1): 0 Cells/mL
Counts ([1]; 2xEC50, 48 h, experiment 1): 0
AVG of cells/mL ([1]; 2xEC50, 48 h, experiment 2): 0 cells/mL
Cells/mL ([1]; 2xEC50, 48 h, experiment 2): 0 Cells/mL
Counts ([1]; 2xEC50, 48 h, experiment 2): 0
effect on T. brucei bloodstream forms in culture (cidal/static) ([1]; 2× and 5× EC50): trypanocidal
AVG of cells/mL ([1]; 5xEC50, 2 h, experiment 1): 138750 cells/mL
Cells/mL ([1]; 5xEC50, 2 h, experiment 1): 132500 Cells/mL and 145000 Cells/mL
Counts ([1]; 5xEC50, 2 h, experiment 1): 53 and 58
AVG of cells/mL ([1]; 5xEC50, 2 h, experiment 2): 140000 cells/mL
Cells/mL ([1]; 5xEC50, 2 h, experiment 2): 137500 Cells/mL and 142500 Cells/mL
Counts ([1]; 5xEC50, 2 h, experiment 2): 55 and 57
AVG of cells/mL ([1]; 5xEC50, 4 h, experiment 1): 152500 cells/mL
Cells/mL ([1]; 5xEC50, 4 h, experiment 1): 150000 Cells/mL and 155000 Cells/mL
Counts ([1]; 5xEC50, 4 h, experiment 1): 62 and 60
AVG of cells/mL ([1]; 5xEC50, 4 h, experiment 2): 153750 cells/mL
Cells/mL ([1]; 5xEC50, 4 h, experiment 2): 160000 Cells/mL and 147500 Cells/mL
Counts ([1]; 5xEC50, 4 h, experiment 2): 59 and 64
AVG of cells/mL ([1]; 5xEC50, 6 h, experiment 1): 171250 cells/mL
Cells/mL ([1]; 5xEC50, 6 h, experiment 1): 167500 Cells/mL and 175000 Cells/mL
Counts ([1]; 5xEC50, 6 h, experiment 1): 67 and 70
AVG of cells/mL ([1]; 5xEC50, 6 h, experiment 2): 140000 cells/mL
Cells/mL ([1]; 5xEC50, 6 h, experiment 2): 155000 Cells/mL and 125000 Cells/mL
Counts ([1]; 5xEC50, 6 h, experiment 2): 62 and 50
AVG of cells/mL ([1]; 5xEC50, 8 h, experiment 1): 131250 cells/mL
Cells/mL ([1]; 5xEC50, 8 h, experiment 1): 130000 Cells/mL and 132500 Cells/mL
Counts ([1]; 5xEC50, 8 h, experiment 1): 52 and 53
AVG of cells/mL ([1]; 5xEC50, 8 h, experiment 2): 146250 cells/mL
Cells/mL ([1]; 5xEC50, 8 h, experiment 2): 142500 Cells/mL and 150000 Cells/mL
Counts ([1]; 5xEC50, 8 h, experiment 2): 57 and 60
AVG of cells/mL ([1]; 5xEC50, 12 h, experiment 1): 98750 cells/mL
Cells/mL ([1]; 5xEC50, 12 h, experiment 1): 107500 Cells/mL and 90000 Cells/mL
Counts ([1]; 5xEC50, 12 h, experiment 1): 43 and 36
AVG of cells/mL ([1]; 5xEC50, 12 h, experiment 2): 95000 cells/mL
Cells/mL ([1]; 5xEC50, 12 h, experiment 2): 92500 Cells/mL and 97500 Cells/mL
Counts ([1]; 5xEC50, 12 h, experiment 2): 37 and 39
AVG of cells/mL ([1]; 5xEC50, 24 h, experiment 1): 28750 cells/mL
Cells/mL ([1]; 5xEC50, 24 h, experiment 1): 27500 Cells/mL and 30000 Cells/mL
Counts ([1]; 5xEC50, 24 h, experiment 1): 11 and 12
AVG of cells/mL ([1]; 5xEC50, 24 h, experiment 2): 7500 cells/mL
Cells/mL ([1]; 5xEC50, 24 h, experiment 2): 7500 Cells/mL
Counts ([1]; 5xEC50, 24 h, experiment 2): 3
AVG of cells/mL ([1]; 5xEC50, 36 h, experiment 1): 18750 cells/mL
Cells/mL ([1]; 5xEC50, 36 h, experiment 1): 12500 Cells/mL and 25000 Cells/mL
Counts ([1]; 5xEC50, 36 h, experiment 1): 5 and 10
AVG of cells/mL ([1]; 5xEC50, 36 h, experiment 2): 1250 cells/mL
Cells/mL ([1]; 5xEC50, 48 h, experiment 1): 0 Cells/mL
Counts ([1]; 5xEC50, 48 h, experiment 1): 0
AVG of cells/mL ([1]; 5xEC50, 48 h, experiment 2): 0 cells/mL
Cells/mL ([1]; 5xEC50, 48 h, experiment 2): 0 Cells/mL
Counts ([1]; 5xEC50, 48 h, experiment 2): 0
EC50 (T. brucei Squib 427; Alamar blue cell viability assay, mean and SEM, read-out: T. b. brucei EC50): 1.3 ± 0.3 nM
EC50 (T. brucei Squib 427; source data, read-out: T. brucei brucei EC50, Average): 1.29 nM
SI (MRC/T.b. brucei) (T. brucei Squib 427; selectivity index): 11,462
P2 transporter ΔG^0 (P2 transporter (TbAT1); Gibbs free energy from −RT ln(Ki)): -8.58 kcal/mol
IC50 (P2 transporter (TbAT1); P2 transporter IC50, single experiments, [L] 0.033 or 0.1 per experiment): 620 nM and 790 nM and 250 nM
Ki (P2 transporter (TbAT1); AVG, source data): 500 nM
Ki (P2 transporter (TbAT1); inhibition of [3H]adenosine uptake, mean ± SEM, n = 3): 502 ± 140 nM
Ki (P2 transporter (TbAT1); single experiments, Cheng–Prusoff from IC50): 520 nM and 740 nM and 240 nM
P2 transporter δ(ΔG^0) (P2 transporter (TbAT1); in comparison to adenosine): -0.024 kcal/mol

From paper PMC6895180 (Nature Communications, 2019)
